The text below walks through data of ChEMBL document CHEMBL4000153, “Bioactive Sesquiterpenoid and Polyacetylene Glycosides from Atractylodes lancea” (J Nat Prod, 2016).

The test system of assay [1] is BV-2. As to the kind of experiment: Antiinflammatory activity in mouse BV2 cells assessed as inhibition of LPS-induced nitric oxide production after 24 hrs by Griess assay. Particulars: BV-2, 24 h. The assay is classed as functional, cell-based.
Assay [2] concerns HepG2. The assay is described as follows: Hepatoprotective activity against APAP-induced cell injury in human HepG2 cells assessed as survival rate at 10 uM after 48 hrs by MTT assay relative to control. The assay is classed as functional. Particulars: HepG2, 48 h, read-out: Survival. For orientation: Tetrazolium dyes change colour on reduction, which living cells bring about.

pIC50: −log10 of the molar value.

Regarding `CC1=CC(=O)C=C(CO)[C@@]12CC[C@@H](C(C)(C)O[C@@H]1O[C@H](CO)[C@@H](O)[C@H](O)[C@H]1O)C2`, the pIC50 in assay [1] was 4.94.
On the same count and under the same terms, as for `COc1cc(/C=C/C(=O)CC(=O)/C=C/c2ccc(O)c(OC)c2)ccc1O` [CURCUMIN], the figure is 5.32.
On to `CC1=CC(=O)C=C(CO)[C@@]12CC[C@@H](C(C)(C)O[C@@H]1O[C@H](CO[C@@H]3OC[C@](O)(CO)[C@H]3O)[C@@H](O)[C@H](O)[C@H]1O)C2`, for which the viability at 10 µM in assay [2] came out at 58.2%.
On to `COC(=O)c1cc(OC)c2c(c1-c1c(CO)cc(OC)c3c1OCO3)OCO2` [BICYCLOL], for which the viability at 10 µM in assay [2] stood at 52.9%.

Broadly, the pIC50 is −log10 of the IC50, conventionally taken in molar units.
